For series [1], the system named is P. acnes. Kind of series: Agar dilution method, growth of P. acnes and MIC, single compounds. The following applies: for MIC: Cutibacterium acnes, compound alone, MIC = concentration with marked reduction (+) of growth, read-out: MIC (mg/mL) as per P-11-0007 or P-11-0008 Addendum A. Also noted: key to Growth Index Plate 1 / Growth Index Plate 2 / Growth Index Plate 3 / Growth Index Avg: +++: confluent growth (comparable to control); ++: less confluent growth; +: marked reduction in growth to multiple tiny, single colonies; −: no growth present. It is filed as cell-based, Propionibacterium acnes. Here is the method: Several compounds including fatty acids such as DGLA, 15-OHEPA, and 15-HETrE were tested to determine their capacity to inhibit the growth of P. acnes. In an exemplary method, an agar dilution method was used to determine the minimum inhibitory concentration (MIC) of each tested compound. Briefly, the agar dilution method involved preparing a series of concentrations of each compound (e.g., nicotinamide, benzoyl peroxide, adapalene, metronidazole, DGLA, 15-OHEPA, and 15-HETrE) in a Reinforced Clostridial Agar (RCA) media that facilitates growth of P. acnes under anaerobic conditions. An inoculum of P. acnes was prepared by incubation of P. acnes for approximately seven days at 35-37° C. to achieve a ≧1.0 OD600 inoculum of P. acnes in RCM broth. A portion of this inoculum was then added to the surface of each plate as a 10 μL spot and incubated at 35-37° C. for 72 hours or more. Growth of P. acnes was then observed and compared to control plates in which no compound has been added, and positive inhibition plates prepared with erythromycin. […] The growth of P. acnes in the presence of nicotinamide, benzoyl peroxide, adapalene, metronidazole, DGLA, 15-OHEPA, and 15-HETrE was determined with varying concentrations of the compound (see, Table 2). Next, the MIC was determined as the concentration at which a marked reduction (+) occurs in the appearance of growth on the test plate (as per Clinical and Laboratory Standards Institute M11-A7).

For series [2], the system named is immortalized sebocyte cell line. As to the kind of experiment: Sebocyte proliferation: viability (M.T.T. test) and morphology after 72 hours. It counts as cell-based, human. From the text: In an embodiment, the pharmacodynamics of a composition comprising DGLA, 15-OHEPA, or 15-HETrE as disclosed herein may be examined using a model of sebum production. In an embodiment, the effects of a composition comprising DGLA, 15-OHEPA, or 15-HETrE as disclosed herein on the proliferation and/or differentiation of sebocytes serves as a model for the pharmacodynamics on sebum production (see, e.g., U.S. Patent Application Publication No. US 2010/0278948, the contents of which are incorporated by reference). In an exemplary method, primary sebocytes are isolated from skin tissue (e.g., human scalp tissue). The isolated primary sebocytes are then immortalized, and the resulting cell line is divided into discrete cultures. Discrete cultures can then be treated with various concentrations of a composition comprising DGLA, 15-OHEPA, or 15-HETrE as disclosed herein. For comparison, a negative control (e.g., a culture of an immortalized sebocyte cell line left untreated) and/or a positive control (e.g., treatment of an immortalized sebocyte cell line with a compound known to inhibit sebocyte growth such as isotretinoin) can be maintained alongside of the test cultures. In an embodiment, a pharmacodynamic assay is maintained for an amount of time suitable to observe differences (if any) between the various immortalized sebocyte cell cultures, for example less than about 24 hours, about 24 hours, about 48 hours, about 72 hours, about 96 hours, about 120 hours, about 144 hours, more than about 144 hours, etc. The effect of treating an immortalized sebocyte cell culture with a given composition or compound can be determined by quantifying, for example and without limitation, the viability of the cultures (e.g., the percent viability and/or mean percent viability). The effect of treating an immortalized sebocyte cell culture with a given composition or compound can be determined by qualitatively assessing, for example and without limitation, morphological changes in the culture. In an embodiment, changes in the morphology of the culture may be classified as: no change (e.g., “normal” population), reduced growth (e.g., “growth reduction”), toxic changes (e.g., “toxicity”), and/or cell death (e.g., “cell mortality”).
The compounds tested in Example 1 were tested to determine the capacity of each to reduce sebum production. In an exemplary method, each compound's ability to inhibit the growth of an immortalized sebocyte cell line was determined.
Primary sebocytes were isolated from sebaceous glands obtained from dissections of human scalp tissue. The primary sebocytes were immortalized and the resulting cell culture was used to study the effects of DGLA and 15-HETrE on sebocyte cell proliferation. Individual cell cultures were treated with eight concentrations of DGLA (1.00 μM, 4.00 μM, […], 37.00 μM, 111.00 μM, 333.00 μM, 1000.00 μM, and 3000.00 μM), and eight concentrations of 15-HETrE (0.50 1.00 4.00 10.00 40.00 110.00 330.00 1000.00). As a positive control, individual cell cultures were treated with eight concentrations of Isotretinoin. Negative control cultures were also maintained. After 72 hours, the mean percent viability for each of the cultures was determined by colorimetry (M.T.T. test) according to J. Mosmann, J. Immunol. Meth., vol. 65, pp. 55-63 (1983), and morphological differences were also observed at that time (see Table 9).

Series [3] has the same test system. The description is as above. It counts as cell-based. The settings on record: Homo sapiens.

Values after ≈ are worked out from the molar mass of the structure shown.

Take `CCCCCC(O)/C=C/C=C\C/C=C\CCCCCCC(=O)O` (stereo not drawn) [15-HETrE, 15-hydroxy-eicosa-8(Z),11(Z),13(E)-trienoic acid]: in series [1] (0.01 mg/ml), the “effect on growth of P. acnes on its own” value is “no effect”. Also, the “Growth Index Avg” value in series [1] (compound at 0.00001 mg/mL) is given as “+++”; in series [1] (compound at 0.0001 mg/mL) it was “+++”; in series [1] (compound at 0.001 mg/mL), “+++”; in series [1] (compound at 0.01 mg/mL), “++”; in series [1] (compound at 0.05 mg/mL), “−”. Besides, the “Growth Index Plate 1” value in series [1] (compound at 0.00001 mg/mL) was “+++”; in series [1] (compound at 0.0001 mg/mL), “+++”; in series [1] (compound at 0.001 mg/mL), “+++”; in series [1] (compound at 0.01 mg/mL), “++”; in series [1] (compound at 0.05 mg/mL) it was “−”. Besides, the “Growth Index Plate 2” value is listed as “+++” in series [1] (compound at 0.00001 mg/mL); “+++” in series [1] (compound at 0.0001 mg/mL); “+++” in series [1] (compound at 0.001 mg/mL); “+++” in series [1] (compound at 0.01 mg/mL); “−” in series [1] (compound at 0.05 mg/mL). Further, the “Growth Index Plate 3” value in series [1] (compound at 0.00001 mg/mL) is “+++”; in series [1] (compound at 0.0001 mg/mL), “+++”; in series [1] (compound at 0.001 mg/mL), “+++”; in series [1] (compound at 0.01 mg/mL), “++”; in series [1] (compound at 0.05 mg/mL), “−”. In addition, the “Mean % Viability” value came to 85% in series [2] (0.5 µM); 77% in series [2] (1 µM); 52% in series [2] (4 µM); 18% in series [2] (10 µM); 1% in series [2] (40 µM); 1% in series [2] (110 µM). Further, the “Mean % Viability” value in series [2] (330 µM) and in series [2] (1000 µM) was 0% each time. In addition, the “Morphological Observations” value in series [2] (4.00 μM, 72 hours) is recorded as “toxicity”; in series [2] (10.00 μM (10 μM), 72 hours), “toxicity”.

Consider `CCC=CCC(O)C=CC=CCC=CCC=CCCCC(=O)O` (stereo not drawn) [15-OHEPA, 15-Hydroxy-eicosa-5,8,11,13,17-pentaenoic acid], for which, in series [1] (0.05 mg/mL), the “effect on growth of P. acnes on its own” value was “no effect”. Moreover, in series [1], the MIC was in the range of 50 to 75 µg/mL (≈ 157 to 236 µM). For the same compound, the “Growth Index Avg” value in series [1] (compound at 0.010 mg/mL) is listed as “+++”; in series [1] (compound at 0.025 mg/mL), “+++”; in series [1] (compound at 0.050 mg/mL) it was “+++”; in series [1] (compound at 0.075 mg/mL) it was “+”; in series [1] (compound at 0.1 mg/mL), “−”. Also, the “Growth Index Plate 1” value in series [1] (compound at 0.010 mg/mL) is given as “+++”; in series [1] (compound at 0.025 mg/mL) it was “+++”; in series [1] (compound at 0.050 mg/mL) it was “+++”; in series [1] (compound at 0.075 mg/mL), “+”; in series [1] (compound at 0.1 mg/mL), “−”. Further, the “Growth Index Plate 2” value in series [1] (compound at 0.010 mg/mL) is “+++”; in series [1] (compound at 0.025 mg/mL), “+++”; in series [1] (compound at 0.050 mg/mL), “+++”; in series [1] (compound at 0.075 mg/mL), “+”; in series [1] (compound at 0.1 mg/mL), “−”. For the same compound, the “Growth Index Plate 3” value in series [1] (compound at 0.010 mg/mL) is “+++”; in series [1] (compound at 0.025 mg/mL), “+++”; in series [1] (compound at 0.050 mg/mL), “+++”; in series [1] (compound at 0.075 mg/mL), “+”; in series [1] (compound at 0.1 mg/mL), “−”.

The viability is a read-out of living cells in per cent, often relative to untreated cells. For `CCCCC/C=C\C/C=C\C/C=C\CCCCCCC(=O)O` [DGLA, cis-8,11,14-eicosatrienoic acid], the “effect on growth of P. acnes on its own” value in series [1] (0.4 mg/ml) was “no effect”. For the same compound, in series [1], the MIC lay within 400 to 600 µg/mL (≈ 1310 to 1960 µM). The “Growth Index Avg” value in series [1] (compound at 0.2 mg/mL) was “+++”; in series [1] (compound at 0.4 mg/mL), “+++”; in series [1] (compound at 0.6 mg/mL), “+”; in series [1] (compound at 0.8 mg/mL) it was “+”; in series [1] (compound at 1.0 mg/mL), “+”. The “Growth Index Plate 1” value in series [1] (compound at 0.2 mg/mL) is recorded as “+++”; in series [1] (compound at 0.4 mg/mL), “+++”; in series [1] (compound at 0.6 mg/mL) it was “++”; in series [1] (compound at 0.8 mg/mL) it was “++”; in series [1] (compound at 1.0 mg/mL), “+”. Further, the “Growth Index Plate 2” value in series [1] (compound at 0.2 mg/mL) is on record as “+++”; in series [1] (compound at 0.4 mg/mL), “+++”; in series [1] (compound at 0.6 mg/mL), “−”; in series [1] (compound at 0.8 mg/mL), “+”; in series [1] (compound at 1.0 mg/mL), “+”. Moreover, the “Growth Index Plate 3” value in series [1] (compound at 0.2 mg/mL) is recorded as “+++”; in series [1] (compound at 0.4 mg/mL), “+++”; in series [1] (compound at 0.6 mg/mL), “++”; in series [1] (compound at 0.8 mg/mL), “+”; in series [1] (compound at 1.0 mg/mL), “+”. Also, the viability at 12 µM in series [3] is 63%. Moreover, in series [2] (Homo sapiens, 1.00 μM, 72 hours), the viability at 1 µM was 107%. Besides, the viability at 4 µM in series [2] (Homo sapiens, 4.00 μM, 72 hours) was determined as 97%. Moreover, the viability at 37 µM in series [2] (Homo sapiens, 37.00 μM, 72 hours) came out at 1%. For the same compound, in series [2] (Homo sapiens, 111.00 μM, 72 hours), the viability at 111 µM turned out to be 2%. Further, the viability at 333 µM in series [2] (Homo sapiens, 333.00 μM, 72 hours) came to 1%. In addition, the viability at 1000 µM in series [2] (Homo sapiens, 1000.00 μM, 72 hours) is 1%. Further, the viability at 3000 µM in series [2] (Homo sapiens, 3000.00 μM, 72 hours) was found to be 3%.

Regarding `CC[C@H]1OC(=O)[C@H](C)[C@@H](O[C@H]2C[C@@](C)(OC)[C@@H](O)[C@H](C)O2)[C@H](C)[C@@H](O[C@@H]2O[C@H](C)C[C@H](N(C)C)[C@H]2O)[C@](C)(O)C[C@@H](C)C(=O)[C@H](C)[C@@H](O)[C@]1(C)O` [Erythromycin], the MIC in series [1] lay within 0.01 to 0.05 µg/mL (≈ 0.0136 to 0.0681 µM).

Regarding `CC1=C(/C=C/C(C)=C/C=C/C(C)=C\C(=O)O)C(C)(C)CCC1` [Isotretinoin], the “Morphological Observations” value in series [2] (1.11 μM, 72 hours) was “toxicity”. Moreover, in series [2] (Homo sapiens, 0.005 μM, 72 hours), the viability at 0.005 µM came to 105%. In series [2] (Homo sapiens, 0.014 μM, 72 hours), the viability at 0.014 µM was determined as 110%. The viability at 0.041 µM in series [2] (Homo sapiens, 0.041 μM, 72 hours) was determined as 103%. For the same compound, the viability at 0.123 µM in series [2] (Homo sapiens, 0.123 μM, 72 hours) worked out at 96%. In addition, in series [2] (Homo sapiens, 0.370 μM, 72 hours), the viability at 0.37 µM was determined as 88%. Moreover, in series [2] (Homo sapiens, 1.11 μM, 72 hours), the viability at 1.11 µM was 76%. In series [2] (Homo sapiens, 3.33 μM, 72 hours), the viability at 3.33 µM was found to be 8%. In series [2] (Homo sapiens, 10.00 μM (10 μM), 72 hours), the viability at 10 µM is 1%.

The values above are taken from US20130274338A1, “PHARMACEUTICAL COMPOSITIONS COMPRISING DGLA, 15-OHEPA, AND/OR 15-HETRE AND METHODS OF REDUCING SEBUM PRODUCTION USING SAME” (priority 2012, published 2013).
